pKi: −log10 of the molar value.
Tests used:
CYP2D6 = CYP2D6 (Homo sapiens, UniProt P10635); experiment: Cytochrome P450 isozyme inhibition, fluorescent Vivid substrate; assay type: in vitro ADME; conditions: 20 nM CYP2D6, 10 μM Vivid 2D6 Blue, 60 minutes
Method: (§1) Selected compounds of the invention were assayed for their ability to inhibit various cytochrome P450 isozymes, such as, for example CYP2D6, CYP2C9, CYP1A2, CYP2C19, CYP3A4, CYP2C9, and CYP3A4 (human liver microsome). Such assays are described by Crespi et al., Anal. Biochem. 248:188-90, 1997; Ekins et al., J. Pharmacol. Exp. Ther. 290, 429-38, 1999; and Ekins et al., J. Pharmacol. Exp. Ther. 291, 424-33, 1999. In a typical isozyme inhibition experiment, test compounds are placed into a microwell on a microtiter plate as an 8 nL solution (2 mM in 75% DMSO/water). The plate is centrifuged for 2 minutes at approximately 1000 rpm to shift the compound to the bottom of the well. Polyvinylpyrrolidone (PVP/10K, 100 nL, 0.2% in 75% DMSO/water) is added to the well and this excipient also centrifuged for 2 minutes at approximately 1000 rpm to ensure mixing with the compound. The plates containing the wells are dried in vacuo. Distilled water (800 nL) is added to the wells containing compound, the background control wells, and the positive control wells, followed by the addition of 200 nL of phosphate buffer (500 mM potassium phosphate butter at pH=8.4). The positive control cells contain a drug such as, for example, miconazole. Insect baculosomes (PanVera P2315) in […] phosphate buffer was added to the background control wells and the plate was scanned for compound fluorescence. […] Therefore, CYP450 isozyme (400 nL) and recycling buffer (3.3 mM glucose-6-phosphate, 0.4 units/mL glucose-6-phosphate dehydrogenase, 100 mM MgCl2, and 0.00025% Antifoam 289) in 100 mM phosphate buffer was added to each well containing compound and background control to obtain the following concentrations: 5 nM CYP3A4, 10 nM CYP2C9, 5 nM CYP1A2, 5 nM CYP2C19, and 20 nM CYP2D6. After incubation for 60 minutes, the wells were read with a fluorescent plate reader.

CYP2C9 = CYP2C9 (Homo sapiens, UniProt P11712); experiment: as above; assay type: in vitro ADME; conditions: 10 nM CYP2C9, 1 μM Vivid 2C9 Green, 60 minutes
Method: as §1

CYP1A2 = molecular target: T1, CYP1A2 (Homo sapiens, UniProt P05177); experiment: as above; assay type: in vitro ADME; conditions: 5 nM CYP1A2, 2 μM Vivid 1A2 Blue, 60 minutes
T1 sequence (P05177 1-516): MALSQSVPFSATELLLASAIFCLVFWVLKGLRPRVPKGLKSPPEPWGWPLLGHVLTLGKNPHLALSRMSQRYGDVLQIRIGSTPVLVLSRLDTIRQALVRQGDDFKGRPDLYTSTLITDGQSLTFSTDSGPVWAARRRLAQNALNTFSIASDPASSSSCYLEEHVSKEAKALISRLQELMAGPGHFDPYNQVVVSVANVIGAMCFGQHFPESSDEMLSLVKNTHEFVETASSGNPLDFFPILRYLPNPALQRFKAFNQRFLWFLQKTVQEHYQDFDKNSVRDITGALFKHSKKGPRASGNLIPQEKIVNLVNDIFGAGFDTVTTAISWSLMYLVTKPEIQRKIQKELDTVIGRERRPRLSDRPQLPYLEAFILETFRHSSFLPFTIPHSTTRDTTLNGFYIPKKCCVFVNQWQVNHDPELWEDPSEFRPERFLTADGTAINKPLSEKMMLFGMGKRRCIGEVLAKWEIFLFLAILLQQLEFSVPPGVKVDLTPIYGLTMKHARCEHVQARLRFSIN
Method: as §1

CYP2C19 = CYP2C19 (Homo sapiens, UniProt P33261); experiment: as above; assay type: in vitro ADME; conditions: 5 nM CYP2C19, 10 μM Vivid 2C19 Blue, 60 minutes
Method: as §1

[1] = molecular target: T2, CYP3A4 (human liver microsome) (Homo sapiens, UniProt P08684); experiment: Cytochrome P450 inhibition, human liver microsome; assay type: in vitro ADME; conditions: read-out: CYP3A4 (HLM) Ki
T2 construct: CYP3A4 (human liver microsome); from tissue; host or cells: human liver microsomes
Method: (§2) Selected compounds of the invention were assayed for their ability to inhibit various cytochrome P450 isozymes, such as, for example CYP2D6, CYP2C9, CYP1A2, CYP2C19, CYP3A4, CYP2C9, and CYP3A4 (human liver microsome). Such assays are described by Crespi et al., Anal. Biochem. 248:188-90, 1997; Ekins et al., J. Pharmacol. Exp. Ther. 290, 429-38, 1999; and Ekins et al., J. Pharmacol. Exp. Ther. 291, 424-33, 1999. […] The plate is centrifuged for 2 minutes at approximately 1000 rpm to shift the compound to the bottom of the well. […] Distilled water (800 nL) is added to the wells containing compound, the background control wells, and the positive control wells, followed by the addition of 200 nL of phosphate buffer (500 mM potassium phosphate butter at pH=8.4). The positive control cells contain a drug such as, for example, miconazole. […] After incubation for 60 minutes, the wells were read with a fluorescent plate reader.

CYP3A4 = CYP3A4 (Homo sapiens, UniProt P08684); experiment: Cytochrome P450 isozyme inhibition, fluorescent Vivid substrate; assay type: in vitro ADME; conditions: 5 nM CYP3A4, 5 μM Vivid 3A4 Red, 60 minutes
Method: as §2, with “miconazole. Insect baculosomes (PanVera […]) in […] phosphate buffer was added to the background control wells and the plate was scanned for compound fluorescence.” for “miconazole.”

ROCK I (AA 6-553) = molecular target: T3, ROCK I (AA 6-553) (Homo sapiens, UniProt Q13464); experiment: ROCK inhibition assay, standard coupled enzyme system; assay type: biochemical; conditions: 45 nM ROCK I, 45 μM ATP, 200 μM peptide, 30° C.
T3 construct: ROCK I (AA 6-553)
Method: Reactions were carried out in a solution containing 100 mM HEPES (pH 7.5), 10 mM MgCl2, 25 mM NaCl, 2 mM DTT and 1.5% DMSO.

T2 sequence (P08684 whole entry): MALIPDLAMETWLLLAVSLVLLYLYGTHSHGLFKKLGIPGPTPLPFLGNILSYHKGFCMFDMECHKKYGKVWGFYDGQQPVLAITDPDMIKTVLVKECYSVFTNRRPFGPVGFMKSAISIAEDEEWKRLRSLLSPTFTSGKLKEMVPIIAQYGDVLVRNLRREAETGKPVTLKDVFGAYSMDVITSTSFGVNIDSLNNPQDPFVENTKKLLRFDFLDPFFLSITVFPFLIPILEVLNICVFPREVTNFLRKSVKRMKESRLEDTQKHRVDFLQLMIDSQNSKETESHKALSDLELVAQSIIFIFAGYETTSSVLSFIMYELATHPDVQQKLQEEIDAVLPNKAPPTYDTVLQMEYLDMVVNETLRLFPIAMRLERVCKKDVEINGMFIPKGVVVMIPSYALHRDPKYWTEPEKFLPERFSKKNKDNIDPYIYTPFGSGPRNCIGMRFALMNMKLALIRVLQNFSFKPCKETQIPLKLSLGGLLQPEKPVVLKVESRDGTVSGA
Sequence of CYP3A4 (P08684 whole entry): as above
Sequence of CYP2D6 (P10635 whole entry): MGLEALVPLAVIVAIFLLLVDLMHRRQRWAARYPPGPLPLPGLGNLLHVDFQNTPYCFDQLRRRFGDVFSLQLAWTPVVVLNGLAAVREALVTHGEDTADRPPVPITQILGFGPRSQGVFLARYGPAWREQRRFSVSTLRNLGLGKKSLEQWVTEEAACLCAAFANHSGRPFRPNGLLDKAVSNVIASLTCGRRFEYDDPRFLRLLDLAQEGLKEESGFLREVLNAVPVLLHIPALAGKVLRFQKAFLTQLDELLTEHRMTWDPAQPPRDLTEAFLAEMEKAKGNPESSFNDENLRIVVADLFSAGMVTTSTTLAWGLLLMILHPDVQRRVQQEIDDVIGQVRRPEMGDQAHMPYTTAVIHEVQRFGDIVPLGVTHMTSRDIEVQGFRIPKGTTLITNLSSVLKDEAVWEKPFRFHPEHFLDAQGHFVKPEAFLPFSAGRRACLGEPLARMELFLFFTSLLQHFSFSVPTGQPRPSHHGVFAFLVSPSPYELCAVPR
T3 sequence (Q13464 6-553, species assumed): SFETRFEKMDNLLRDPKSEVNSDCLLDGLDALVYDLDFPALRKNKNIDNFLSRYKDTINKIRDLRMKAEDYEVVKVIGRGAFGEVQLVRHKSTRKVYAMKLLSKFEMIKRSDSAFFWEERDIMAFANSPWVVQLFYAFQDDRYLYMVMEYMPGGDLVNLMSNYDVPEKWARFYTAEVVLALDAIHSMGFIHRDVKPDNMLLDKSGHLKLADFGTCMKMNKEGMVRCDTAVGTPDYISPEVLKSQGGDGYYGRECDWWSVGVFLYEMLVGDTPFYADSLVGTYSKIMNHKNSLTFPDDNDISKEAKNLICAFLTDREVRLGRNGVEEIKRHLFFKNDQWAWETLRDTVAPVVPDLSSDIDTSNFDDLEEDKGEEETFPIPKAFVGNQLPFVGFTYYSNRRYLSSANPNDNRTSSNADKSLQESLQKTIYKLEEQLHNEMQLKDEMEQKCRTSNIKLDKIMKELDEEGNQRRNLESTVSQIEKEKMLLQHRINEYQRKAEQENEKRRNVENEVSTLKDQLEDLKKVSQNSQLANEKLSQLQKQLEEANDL
Sequence of CYP2C9 (P11712 whole entry): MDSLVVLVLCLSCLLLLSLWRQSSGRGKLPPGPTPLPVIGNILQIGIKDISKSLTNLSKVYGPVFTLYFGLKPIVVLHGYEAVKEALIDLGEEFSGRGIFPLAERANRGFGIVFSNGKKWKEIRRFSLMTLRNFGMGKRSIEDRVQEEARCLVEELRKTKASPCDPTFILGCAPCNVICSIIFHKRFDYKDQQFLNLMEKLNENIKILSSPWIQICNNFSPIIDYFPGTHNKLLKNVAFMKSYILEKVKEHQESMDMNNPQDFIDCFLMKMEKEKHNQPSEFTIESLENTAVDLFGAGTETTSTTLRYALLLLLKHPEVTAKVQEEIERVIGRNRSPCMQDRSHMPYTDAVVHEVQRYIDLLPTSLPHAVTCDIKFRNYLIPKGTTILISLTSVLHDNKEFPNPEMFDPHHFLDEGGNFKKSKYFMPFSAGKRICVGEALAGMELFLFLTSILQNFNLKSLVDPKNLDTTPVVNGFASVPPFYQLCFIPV
Sequence of CYP2C19 (P33261 whole entry): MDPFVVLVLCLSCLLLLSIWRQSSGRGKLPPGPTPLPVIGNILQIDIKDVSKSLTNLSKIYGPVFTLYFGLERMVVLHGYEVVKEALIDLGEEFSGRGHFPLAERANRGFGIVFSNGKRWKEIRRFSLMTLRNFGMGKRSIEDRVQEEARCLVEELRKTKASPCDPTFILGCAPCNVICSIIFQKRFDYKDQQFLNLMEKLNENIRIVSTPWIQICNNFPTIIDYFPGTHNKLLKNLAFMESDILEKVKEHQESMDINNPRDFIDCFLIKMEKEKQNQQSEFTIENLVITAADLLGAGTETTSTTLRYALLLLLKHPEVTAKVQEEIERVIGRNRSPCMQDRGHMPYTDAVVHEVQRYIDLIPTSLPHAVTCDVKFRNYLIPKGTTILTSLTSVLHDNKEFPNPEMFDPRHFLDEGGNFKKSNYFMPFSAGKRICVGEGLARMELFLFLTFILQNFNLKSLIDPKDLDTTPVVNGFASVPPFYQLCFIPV

SMILES	pKi (CYP2D6)	pKi (CYP2C9)	pKi (CYP1A2)	pKi (CYP2C19)	pKi [1]	pKi (CYP3A4)	pKi (ROCK I (AA 6-553))
COc1cccc(CC(=O)Nc2cc(-c3ccnc(F)c3)cs2)c1 [Compound 61]	< 5.00	5.00 to 6.00	< 5.00	5.00 to 6.00	–	–	–
COc1cccc(CC(=O)Nc2cc(-c3ccnc(Cl)c3)cs2)c1 [Compound 62]	–	5.00 to 6.00	< 5.00	–	–	–	–
COc1cccc(CC(=O)Nc2cc(-c3ccnc(N)c3)cs2)c1 [Compound 64, N-(4-(2-aminopyridin-4-yl)thiophen-2-yl)-2-(3-methoxyphenyl)acetamide]	5.00 to 6.00	5.00 to 6.00	5.00 to 6.00	< 5.00	–	–	–
O=C(Cc1cccc(OCCCC2CCNCC2)c1)Nc1cc(-c2ccnc(F)c2)cs1 [Compound 72]	5.00 to 6.00	–	< 5.00	5.00 to 6.00	< 5.00	5.00 to 6.00	> 7.00
CN1CCN(CCOc2cccc(CC(=O)Nc3cc(-c4ccnc(F)c4)cs3)c2)CC1 [Compound 73]	< 5.00	< 5.00	< 5.00	–	< 5.00	< 5.00	> 7.00
CN1CCN(CCCOc2cccc(CC(=O)Nc3cc(-c4ccnc(F)c4)cs3)c2)CC1 [Compound 74]	< 5.00	< 5.00	< 5.00	< 5.00	< 5.00	< 5.00	> 7.00
Nc1cc(-c2csc(NC(=O)Cc3cccc(OCCCC4CCNCC4)c3)c2)ccn1 [Compound 77]	> 6.00	5.00 to 6.00	< 5.00	5.00 to 6.00	5.00 to 6.00	5.00 to 6.00	> 7.00
COc1cccc(CC(=O)Nc2cc(-c3ccnc(C)c3)cs2)c1 [Compound 80]	< 5.00	5.00 to 6.00	< 5.00	5.00 to 6.00	5.00 to 6.00	5.00 to 6.00	6.00 to 7.00
Cc1cc(-c2csc(NC(=O)Cc3cccc(O)c3)c2)ccn1 [Compound 85]	< 5.00	< 5.00	< 5.00	5.00 to 6.00	< 5.00	< 5.00	> 7.00
Cc1cc(-c2csc(NC(=O)Cc3cccc(OCCCN4CCNCC4)c3)c2)ccn1 [Compound 89]	–	< 5.00	< 5.00	5.00 to 6.00	< 5.00	< 5.00	> 7.00
Cc1cc(-c2csc(NC(=O)Cc3cccc(OCCCN4CCN(C)CC4)c3)c2)ccn1 [Compound 90]	–	< 5.00	< 5.00	–	< 5.00	< 5.00	6.00 to 7.00
Cc1cc(-c2csc(NC(=O)Cc3cccc(OCCN4CCNCC4)c3)c2)ccn1 [Compound 92]	–	< 5.00	< 5.00	< 5.00	< 5.00	< 5.00	6.00 to 7.00
Cc1cc(-c2csc(NC(=O)Cc3cccc(OCCN4CCN(C)CC4)c3)c2)ccn1 [Compound 93]	–	< 5.00	< 5.00	< 5.00	< 5.00	< 5.00	6.00 to 7.00
Cc1cc(-c2csc(NC(=O)Cc3cccc(OCCN4CCCCC4)c3)c2)ccn1 [Compound 94]	–	< 5.00	< 5.00	< 5.00	< 5.00	< 5.00	< 6.00
O=C(Cc1cccc(O)c1)Nc1cc(-c2ccnc(Cl)c2)cs1 [Compound 101]	–	5.00 to 6.00	5.00 to 6.00	5.00 to 6.00	5.00 to 6.00	5.00 to 6.00	> 7.00
O=C(Cc1cccc(OCCCN2CCNCC2)c1)Nc1cc(-c2ccnc(Cl)c2)cs1 [Compound 102]	< 5.00	< 5.00	< 5.00	5.00 to 6.00	< 5.00	5.00 to 6.00	> 7.00
CN1CCN(CCCOc2cccc(CC(=O)Nc3cc(-c4ccnc(Cl)c4)cs3)c2)CC1 [Compound 103]	< 5.00	< 5.00	< 5.00	< 5.00	< 5.00	< 5.00	> 7.00
O=C(Cc1cc2c(cc1Cl)OCO2)Nc1cc(-c2ccnc(Cl)c2)cs1 [Compound 105]	> 6.00	5.00 to 6.00	5.00 to 6.00	> 6.00	5.00 to 6.00	5.00 to 6.00	> 7.00

From patent US8278306B2 (Vertex Pharmaceuticals Incorporated, priority 2006, dated 2012)
